SMILES strings stand for the structures.

Format in all cases: ADME
The nature of data set [1]: Ratio of catalytic constant to Michaelis-Menten constant (Kcat/Km).
The nature of data set [2]: Compound was evaluated for Michaelis-Menten constant, Km.
Data set [3] can be described thus: Compound was evaluated for catalytic constant, Kcat.

As to `CCOC(=O)/C(=C\c1ccc(C)s1)NC(=O)[C@H](Cc1ccccc1)NC(C)=O`, the Ratio in data set [1] is reported as 3.2. Moreover, the Km in data set [2] was 0.062 Me-3. In data set [3], this compound had a k cat of 0.0033 s⁻¹.
Compound `CCOC(=O)N/C(=C/c1ccc(C)s1)C(=O)n1ccnc1` had a k cat in data set [3] of 0.0013 s⁻¹.
Same read-out and setting: under `Cc1ccc(/C=C\C(=O)n2ccnc2)s1` stands 0.0012 s⁻¹.
Consider `CCOC(=O)/C(=C\c1ccc(C)s1)NC(=O)[C@H](C)NC(C)=O`, for which the Ratio in data set [1] came out at 0.05. For the same compound, in data set [2], the Km is recorded as 3.9 Me-3. This compound gave a k cat in data set [3] of 0.0033 s⁻¹.

The values above are taken from ChEMBL document CHEMBL1128048, “Synthesis of chromophoric dipeptides as substrates for papain” (Bioorg Med Chem Lett, 1995).
